From patent US20020115624A1, “Alpha gylcosylceramides for treating bacterial and fungal infections” (priority 2000, published 2002)

Experiments:
[1] = tested on: NK, B, CD8+, and CD4+ lymphocytes; settings: cited from earlier work
M. tuberculosis (Erdman) = assay: Intravenous inoculation model of tuberculosis: survival of infected BALB/c mice treated with α-galactosylceramide; assay type: in vivo
NKT cells = settings: specificity for the α-linkage; cited from earlier work

Compound	time to activation of NK, B, CD8+ and CD4+ lymphocytes (induction of CD69, CD80, CD86) ([1]; administration to mice in vivo) [h]	time to detectable increase in serum IFN-γ ([1]; following in vivo treatment of mice) [h]	activation of the immune system ([1]; mice that lack CD1d (CD1d −/−) or lack NKT cells (Jα281−/−))	survival compared to the control group (M. tuberculosis (Erdman); BALB/c mice, 5×10^5 cfu IV, 2 ug IP on days 1, 5 and 9, nine mice per group)	mean survival time (MST) (M. tuberculosis (Erdman); BALB/c mice, 5×10^5 cfu IV, 2 ug IP on days 1, 5 and 9 after infection, vehicle MST 60 days, p<0.0001 by log-rank test) [days]	bacteriological cure (M. tuberculosis (Erdman); preliminary experiments, all of the infected mice died despite treatment)	activation of NKT cells (NKT cells)
CCCCCCCCCCCCCCCCCCCCCCCCCC(=O)N[C@@H](CO[C@H]1O[C@H](CO)[C@H](O)[C@H](O)[C@H]1O)[C@H](O)[C@H](O)CCCCCCCCCCCCCC [α-galactosylceramide]	3 to 24	≤ 18	does not occur	increased survival	91	did not result in a bacteriological cure	–
β-galactosylceramide	–	–	–	–	–	–	does not activate NKT cells
